This note sets out measurements from US12714682B2, “Calixarene compounds and uses thereof” (UNIVERSITÄT WIEN, priority 2019, dated 2026).

Test [1] concerns SH-SY5Y (neuroblastoma cell line). Nature of the test: RNAseq global gene expression in differentiated SH-SY5Y cells. The format is cell-based, human. As to the method: To determine the cellular response to SCA-744 (Cat. No. 55523-250 MG Sigma-Aldrich), the global changes in gene expression upon treatment of human in vitro cultured cells, SH-SY5Y (neuroblastoma cell line: SH-SY5Y-ATCC-CRL-2266) were analysed by RNAseq analysis. SH-SY5Y were cells differentiated with retinoic acid and Phorbol-12-Myristate-13-Acetate (Presgraves et al. Experimental Neurology 2004, 190(1), pp. 157-170). Cell cultures were treated for 24 hours with 500 μM of SCA-744 or vehicle (DPBS). Total RNA was isolated to prepare libraries using the Lexogen SENSE mRNA kit and sequenced using a HiSeq2500 (Illumina) running in 50 bp single-read modes using sequencing chemistry v4. Differentially expressed genes (DEGs) were identified by applying the statistical tests of DESeq (Anders & Huber, Genome biology 2010, 11(10), p. R106), and edgeR (Robinson et al. Bioinformatics 2009, 26(1), pp. 139-140.) packages. The comparison was made with Homo sapiens identifiers.

For test [2], the system named is THP-1 human monocytic cell line. Nature of the test: LPS-stimulated THP-1 macrophage cytokine production (LEGENDplex). The format is cell-based. As to the method: A specific anti-inflammatory effect or activity of a compound is proven, if the compound can decrease the production of one of IL-1B, IL-6 and TNFα in human THP1 macrophages following LPS stimulation, as determined by a standard assay: THP-1 human monocytic cell lines are treated with 100 nM of Phorbol 12-myristate 13-acetate (PMA) for 48 h to induce mature macrophage-like state. Cells are then stimulated with 100 ng/ml of LPS in the absence and presence of 500 μM of compound. After 6 hours, supernatants of treated and untreated cells are collected, and cytokine levels determined using the Human Inflammatory panel LEGENDplex Human Pro-inflammatory Chemokine Panel (Cat. No. 740118). A positive result is considered if the compound is capable of reduce or block the production of IL-1β, IL-6, and TNFα in human THP1 macrophages after LPS stimulation.
Following cells were treated with [10 ng/ml] LPS in the absence and presence 10, 100 and 500 μM of SCA-744. Cytokine levels were determined by LEGENDplex™ Human Inflammation Panel assay from BioLegend. The bar heights represent the concentration means compared to LPS alone of 3 independent experiments carried out in triplicates.
Cells were treated with 100 nM of Phorbol 12-myristate 13-acetate (PMA) for 48 h to induce mature macrophage-like state. Cells were then stimulated with 100 ng/ml of Lipopolysaccharides (LPS) in the absence and presence of 500 μM of SCA-744. After 6 hours, supernatants of treated and untreated cells were collected and the levels of three major pro-inflammatory cytokines TNF-α, IL-6 and IL-1ß were determined using the Human Inflammatory panel of LEGENDPLEX Multi-Analyte Flow assay.

The test system of another test is C57BL/6J mice. Nature of the test: LPS-induced acute lung inflammation model: lung histopathology. It counts as in vivo. The conditions noted are these: SCA-744 60 mg/kg i.p. As to the method:
Acute lung inflammation was induced by intratracheal administration of 100 μg LPS (Escherichia coli O111:B4; Sigma Aldrich, St. Louis, MO, USA) dissolved in 60 μl sterile phosphate buffered saline (PBS) under ketamine (120 mg/kg ip.; Calypsol, Gedeon Richter Plc., Budapest, Hungary) and xylazine (6 mg/kg ip.; Sedaxylan, Eurovet Animal Health B.V., Bladel, Netherlands) anaesthesia. 24 h after administration, respiratory function parameters were assessed, and lung samples were harvested for histopathological evaluation.
SCA-744 (60 mg/kg) and its vehicle were injected intraperitoneally (i.p.), 24 h, 12 h, 20 min before and 12 h after intratracheal administration of LPS. […] 24 h and 20 min before LPS treatment. Respiratory function measurement was performed 24 h after LPS administration
Excised lung tissue samples were formalin-fixed (6%) and embedded in paraffin, 5 μm sections cut and stained with haematoxylin-eosin for histological analysis. Assessment of airway inflammation was performed in a blind manner in order to evaluate perivascular/peribronchial edema, neutrophil, macrophage and lymphocyte inflammatory cell infiltration as well as goblet cell metaplasia on a semiquantitative scale ranging from 0 to 3 in 2 fields of vision from three depths of lung tissue from each animal.

Another test concerns mice. Nature of the test: CFA-induced chronic arthritis model: joint histology. The conditions noted are these: 60 mg/kg i.p. daily, 21-day period. It counts as in vivo. As to the method: The chronic arthritis was induced by intraplantar (i.pl.) injection of 20 μl complete Freund's adjuvant (CFA, heat-killed Mycobacterium suspended in paraffin oil, 1 mg/ml; Sigma Aldrich, St. Louis, MO, USA) into the right hind paw and 20 μl subcutaneously (s.c.) into the tail root. An additional s.c. injection (20 μl) was administered on the following day (day 1) into the tail root in order to potentiate the systemic effects mimicking the human condition.
The excised tibiotarsal joints are fixed in 4% buffer formaldehye, decalcified and paraffin-embedded, sliced into sections (5 μm) and stained with hematoxylin and esosin. Arthritic changes are scored by a blinded observer using a scale of 0 to 3 according to 1) mononuclear cells infiltration into areolar tissue, 2) synovial hyperplasia, 3) cartilage destruction, 4) bone erosion.

For the next test, the system named is neuroblastoma cells. Nature of the test: Protection from MPP+ induced oxidative stress, CellTiter-Glo viability. It counts as cell-based. The method, then: Several in-vivo and in-vitro studies find that MPP+ exerts oxidative stress on cells^22. MPP+×toxicity is based on its uptake into dopaminergic neurons. MPP+ accumulate into the mitochondria, inhibiting the complex-I leading to ATP depletion, increased reactive oxygen species (ROS) production, and apoptotic cell death^23. 12 h following MPP+ treatment and SCA-744 and CAL-X incubation, cell viability was assessed using a standard ATP method, CellTiter-Glo® Luminescent Cell Viability Assay.

The next test deals with HELA cells. Nature of the test: Protection from H2O2 induced stress. The format is cell-based. As to the method: Using an incubation time of 24 h, it was sufficient to determine the toxicity and rescue effect of SCA-744 in HELA cells.
The mark [3] stands for this setting: 500 μM, 24 hours, differentiated SH-SY5Y.

Entries after “also recorded” stand apart in the source; their conditions may differ.

For the compound `O=S(=O)(O)c1cc2c(O)c(c1)Cc1cc(S(=O)(=O)O)cc(c1O)Cc1cc(S(=O)(=O)O)cc(c1O)Cc1cc(S(=O)(=O)O)cc(c1O)C2` [SCA-744, 4-sulfocalix[4]arene], the “genes for LDLR, INSIG1 and DHCR24/Seladin-1” value in test [1] was “found to be modulated”. Further, in test [1] (setting [3]), the “genes involved in inflammation, anti-oxidative, anti-ageing response and lipid metabolism (RNAseq)” value is on record as “differentially regulated”; the “mRNA expression of anti-oxidative genes CHAC1, NQO1, SLC7A11 (RNASeq)” value was “significant up-regulation”; the “mRNA expression of key genes involved in pro-inflammatory response” value is given as “down regulates key genes involved in pro-inflammatory response”. In test [2] (10 ng/ml LPS, 10, 100 and 500 μM, FIG. 2), the “inhibition of LPS-induced TNF-α, IL-ß and IL-6” value was “Dose-dependent inhibition”. In test [2] (500 μM, 100 ng/ml LPS, 6 hours, PMA-differentiated THP-1), the “pro-inflammatory cytokine levels (TNF-α, IL-6, IL-1ß) in culture supernatant” value is listed as “significantly decreased”. The “pathological changes in perivascular oedema and perivascular/peribronchial infiltration by neutrophils and macrophages” value in the test with C57BL/6J mice is listed as “prevented or greatly reduced the pathological changes”. Moreover, in the test on C57BL/6J mice (dexamethasone 5 mg/kg ip.), the “semiquantitative pathology scores (oedema, granulocytes, macrophages, composite; scale 0 to 3)” value is “not statistically significantly different from untreated controls”. In addition, in the test on mice, the “synovial hyperplasia score (scale 0 to 3)” value is recorded as “significantly lower”. Also, in the test on neuroblastoma cells (0.1-1000 μM, 12 h), the “protection from MPP+ induced apoptosis / damage” value is reported as “protects against oxidative stress from MPP+ induced damage; also recorded: protected neuroblastoma cells from MPP+ induced apoptosis”. Moreover, in the test with neuroblastoma cells (12 h following MPP+ treatment, CellTiter-Glo), the “concentration for MPP+ protection” value was determined as 1 µM. For the same compound, in the test with HELA cells (Homo sapiens, HELA, 24 h incubation, H2O2 50 mM, read-out: EC50 rescue from H2O2 toxicity), the EC50 is 200 nM. Besides, the “protection from H2O2 induced damage” value in the test with HELA cells (mammalian cells, FIG. 20) was “protects against oxidative stress from H2O2 induced damage”.
